This is an account of results in the supplement of paper PMC11061612.

Holding throughout (assay): Bliss excess, mean over the matrix (fraction); higher = more synergy
For assay [1], the system named is LB996-RCC (Kidney Carcinoma). The gist of the method:
(§1)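 Cell lines in DMEM/F12 or RPMI with 10% FBS were plated in 1536-well plates, held 24 hours at 37°C, 5% CO2, then given two-drug dose matrices for 72 hours (DMSO typically 0.2%). Viability was read by CellTiter-Glo 2.0 luminescence and scaled as inhibition from 0 (vehicle wells) to 1 (blank wells). Combination Emax is the second-highest inhibition in the matrix; Bliss excess is observed combination effect minus expected EA + EB − EA·EB, EA and EB being single-agent effects.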

A further assay deals with WM278 (Melanoma). The gist of the method:
as §1

The subject of assay [2] is L-1236 (Hodgkin's Lymphoma). The gist of the method:
as §1

The test system of assay [3] is OAW-42 (Ovarian Carcinoma). The gist of the method: as §1
Assay [4] deals with VAL (B-Cell Non-Hodgkin's Lymphoma). The gist of the method:
as §1

The subject of a further assay is GB-1 (Glioblastoma). The gist of the method: as §1
For assay [5], the system named is MFE-280 (Endometrial Carcinoma). The gist of the method: as §1
In a further assay the test system is LN-229 (Glioblastoma). The gist of the method:
as §1

Assay [6] concerns FADU (Head and Neck Carcinoma). The gist of the method: as §1
For assay [7], the system named is TE-8 (Esophageal Squamous Cell Carcinoma). The gist of the method:
as §1

Assay [8] relates to PSN1 (Pancreatic Carcinoma). The gist of the method: as §1
The subject of assay [9] is OVMIU (Ovarian Carcinoma). The gist of the method: as §1
Assay [10] concerns LK-2 (Squamous Cell Lung Carcinoma). The gist of the method:
as §1

Assay [11] concerns RERF-GC-1B (Gastric Carcinoma). The gist of the method:
as §1

Assay [12] deals with SHP-77 (Small Cell Lung Carcinoma). The gist of the method: as §1
Assay [13] has as its system SK-PN-DW (Other Solid Carcinomas). The gist of the method: as §1
For assay [14], the system named is COLO-680N (Esophageal Squamous Cell Carcinoma). The gist of the method:
as §1

For a further assay, the system named is SF268 (Low Grade Glioma). The gist of the method: as §1
For assay [15], the system named is NCI-H446 (Small Cell Lung Carcinoma). The gist of the method:
as §1

In assay [16] the test system is OPM-2 (Plasma Cell Myeloma). The gist of the method:
as §1

As to `COc1cc2ncnc(Nc3ccc(F)c(Cl)c3)c2cc1OCCCN1CCOCC1` [Gefitinib] + CC(C)n1c(=O)n(C)c2cnc3cc(F)c(-c4ccc(OCCCN5CCCCC5)nc4)cc3c21 [AZD1390] (first compound max 10 µM, 7x7, partner max 0.3 µM), the Bliss excess was -0.0069 in [1]; -0.0728 with WM278 (Melanoma); -0.0467 in assay [2]; -0.0384 in [3]; -0.0608 in assay [4]; -0.0815 in the assay on GB-1 (Glioblastoma). Further, the Bliss excess in assay [5] is -0.0676; with LN-229 (Glioblastoma) it was -0.077; in [6], -0.0619; in assay [7], -0.075; in assay [8] it was -0.0338; in assay [9] it was -0.0564. Besides, the Bliss excess in assay [10] was 0.0037; in [11], -0.092; in [12] it was -0.0471; in assay [13], -0.0293; in assay [14] it was -0.0252; in the assay with SF268 (Low Grade Glioma), -0.0727. Further, the Bliss excess in assay [15] was -0.0082; in assay [16] it was -0.0151.
As for `CS(=O)(=O)CCNCc1ccc(-c2ccc3ncnc(Nc4ccc(OCc5cccc(F)c5)c(Cl)c4)c3c2)o1` [Lapatinib] + C[C@@H](Oc1cc(-c2cnn(C3CCNCC3)c2)cnc1N)c1c(Cl)ccc(F)c1Cl [Crizotinib] (first compound max 10 µM, 7x7, partner max 10 µM), the Bliss excess was -0.0196 in [1]; -0.0284 in the assay with WM278 (Melanoma); 0.0239 in [2]; -0.0033 in assay [3]; -0.0531 in assay [4]; -0.11 with GB-1 (Glioblastoma). For the same compound, the Bliss excess is -0.0226 in assay [5]; -0.0396 with LN-229 (Glioblastoma); -0.0302 in [6]; -0.0294 in [7]; -0.0443 in assay [8]; -0.0097 in [9]. Also, the Bliss excess is 0.0067 in assay [10]; -0.0237 in assay [11]; -0.0004 in [12]; -0.0722 in assay [13]; -0.017 in assay [14]; -0.056 with SF268 (Low Grade Glioma). Moreover, the Bliss excess in assay [15] is -0.0344; in assay [16], -0.0611.
`CC(=O)c1c(C)c2cnc(Nc3ccc(N4CCNCC4)cn3)nc2n(C2CCCC2)c1=O` [Palbociclib] + CC1(C)CCC(CN2CCN(c3ccc(C(=O)NS(=O)(=O)c4ccc(NCC5CCOCC5)c([N+](=O)[O-])c4)c(Oc4cnc5[nH]ccc5c4)c3)CC2)=C(c2ccc(Cl)cc2)C1 [Venetoclax] (first compound max 10 µM, 7x7, partner max 1 µM): the Bliss excess is 0.0044 in [1]; -0.0338 in the assay with WM278 (Melanoma); 0.0003 in assay [2]; -0.0365 in [3]; -0.0109 in [4]; -0.0448 in the assay on GB-1 (Glioblastoma). The Bliss excess was -0.068 in assay [5]; -0.0652 with LN-229 (Glioblastoma); -0.0596 in assay [6]; -0.0784 in assay [7]; -0.0149 in assay [8]; -0.0402 in assay [9]. In addition, the Bliss excess is -0.0179 in assay [10]; -0.048 in assay [11]; 0.0543 in assay [12]; -0.0063 in [13]; -0.0445 in assay [14]; -0.0344 with SF268 (Low Grade Glioma). For the same compound, the Bliss excess is 0.0219 in assay [15] and 0.017 in assay [16].
In the case of `CC(=O)c1c(C)c2cnc(Nc3ccc(N4CCNCC4)cn3)nc2n(C2CCCC2)c1=O` [Palbociclib] + Cc1c2c(nn1C)CSCc1cc(n(C)n1)CSc1cc(c3ccccc3c1)OCCCc1c(C(=O)O)n(C)c3c-2c(Cl)ccc13 [AZD5991] (first compound max 10 µM, 7x7, partner max 1 µM), the Bliss excess in assay [1] is -0.0238; in the assay with WM278 (Melanoma) it was -0.0395; in [2], -0.0341; in assay [3], 0.0143; in assay [4] it was 0.0533; with GB-1 (Glioblastoma) it was -0.102. Moreover, the Bliss excess is -0.0333 in assay [5]; -0.057 with LN-229 (Glioblastoma); -0.126 in assay [6]; -0.108 in assay [7]; -0.0111 in assay [8]; -0.0416 in assay [9]. For the same compound, the Bliss excess in assay [10] is 0.0076; in assay [11] it was -0.0116; in assay [12], -0.0247; in assay [13] it was -0.0194; in [14], -0.0341; with SF268 (Low Grade Glioma) it was 0.0193. The figures for the Bliss excess in assay [15] and in [16] were 0.0062 and 0.0009, respectively.
Take `CC(=O)c1c(C)c2cnc(Nc3ccc(N4CCNCC4)cn3)nc2n(C2CCCC2)c1=O` [Palbociclib] + Cn1cnc2c(F)c(Nc3ccc(Br)cc3Cl)c(C(=O)NOCCO)cc21 [Selumetinib] (first compound max 10 µM, 7x7, partner max 10 µM): the Bliss excess is -0.0426 in [1]; -0.0152 in the assay on WM278 (Melanoma); -0.0841 in [2]; -0.0555 in assay [3]; 0.0029 in assay [4]; -0.0016 in the assay with GB-1 (Glioblastoma). In addition, the Bliss excess was -0.0255 in assay [5]; 0.001 in the assay with LN-229 (Glioblastoma); 0.115 in assay [6]; -0.0454 in assay [7]; 0.0226 in assay [8]; -0.0097 in [9]. Moreover, the Bliss excess in assay [10] is 0.0281; in assay [11], -0.0329; in assay [12], 0.0052; in [13] it was -0.0164; in assay [14], -0.0207; with SF268 (Low Grade Glioma), -0.0269. The Bliss excess in assay [15] was -0.0689; in [16] it was 0.0343.
On to `COc1cccc(OCCCN)c1-c1cc(Nc2cnc(C#N)cn2)n[nH]1` [Prexasertib] + CCc1c2c(nc3ccc(O)cc13)-c1cc3c(c(=O)n1C2)COC(=O)[C@]3(O)CC [SN-38] (first compound max 1 µM, 7x7, partner max 0.3 µM), for which the Bliss excess in [1] is -0.0334; in the assay with WM278 (Melanoma), -0.0479; in assay [2] it was -0.0584; in assay [3], -0.0263; in [4] it was -0.0702; in the assay on GB-1 (Glioblastoma) it was -0.0438. Moreover, the Bliss excess in assay [5] is 0.115; in the assay with LN-229 (Glioblastoma), -0.022; in assay [6], -0.0233; in assay [7] it was 0.0456; in assay [8], 0.0569; in assay [9], -0.0921. Also, the Bliss excess was 0.0915 in assay [10]; 0.0318 in assay [11]; 0.121 in assay [12]; -0.0672 in assay [13]; 0.0609 in assay [14]; 0.0097 in the assay with SF268 (Low Grade Glioma). In addition, the Bliss excess in assay [15] is 0.0756; in [16], -0.0125.
On to `C[C@@H](c1ccc2nccn2c1)n1nnc2ncc(-c3cnn(C)c3)nc21` [Savolitinib] + CC1(C)CCC(CN2CCN(c3ccc(C(=O)NS(=O)(=O)c4ccc(NCC5CCOCC5)c([N+](=O)[O-])c4)c(Oc4cnc5[nH]ccc5c4)c3)CC2)=C(c2ccc(Cl)cc2)C1 [Venetoclax] (first compound max 1 µM, 7x7, partner max 1 µM), for which the Bliss excess in assay [1] was -0.0725; in the assay with WM278 (Melanoma), -0.0614; in assay [2], 0.0176; in assay [3], -0.024; in [4], -0.0305; in the assay on GB-1 (Glioblastoma), -0.0626. The Bliss excess was -0.044 in [5]; -0.0679 in the assay on LN-229 (Glioblastoma); -0.107 in assay [6]; -0.105 in assay [7]; -0.0411 in [8]; -0.0569 in [9]. The Bliss excess in [10] is -0.0137; in assay [11], -0.0303; in [12] it was -0.0623; in assay [13], -0.0349; in [14] it was -0.0115; in the assay with SF268 (Low Grade Glioma) it was -0.095. Besides, the results for the Bliss excess in [15] and in [16] were 0.0246 and 0.0324, respectively.
